Measurements taken from publication PMC12142043, “Cell-based high-content approach for SARS-CoV-2 neutralization identifies unique monoclonal antibodies and PI3K pathway inhibitors” (Frontiers in Cell and Developmental Biology, 2025).
Structures can show the parent of a compound that is named as a salt. Where two headings read alike, the source gives them in different places.

System: SARS-CoV-2 (USA-WA1/2020) in Calu-3 cells
Assay type: cell-based
[1] = high dose (10 µM), Calu-3, 48 h
[2] = low dose (100 nM), Calu-3, 48 h

| SMILES | dsRNA signal, AU High [1] [AU] | dsRNA signal, AU Low [2] [AU] | dsRNA signal, AU High | dsRNA signal, AU Low |
| --- | --- | --- | --- | --- |
| Cn1cc(C2=C(c3ccc(Cl)cc3Cl)C(=O)NC2=O)c2ccccc21 [SB 216763] | 596.7 | 53506.5 |  |  |
| COc1nccc(-c2c(-c3ccc(F)cc3)ncn2C2CCC(O)CC2)n1 (stereo not drawn) [SB 239063] | 16458.2 | 15855.6 |  |  |
| NC(=O)c1ccc(-c2nc(-c3ccc4c(c3)OCO4)c(-c3ccccn3)[nH]2)cc1 [SB 431542] | 540.4 | 12958.4 |  |  |
| O=C(Nc1ccc2[nH]nc(-c3ccncc3)c2c1)[C@@H]1CCN(CC(=O)N2CCN(c3ccc(-c4ncccn4)cc3)CC2)C1 [SCH772984] | 21169.8 | 17905.7 |  |  |
| CC(C)(C)C(=O)Nc1ccc2c(c1)C(=O)C(=O)c1ccccc1-2 [SF1670] | 30745.4 | 12301.2 |  |  |
| CN1CCC(CNc2ccc3ncc(-c4cccc(OC(F)(F)F)c4)n3n2)CC1 [SGI-1776 free base] | 1583.1 | 29976.5 |  |  |
| Cn1cc(-c2ccc3nnc(Sc4ccc5ncccc5c4)n3n2)cn1 [SGX-523] | 18702.9 | 25732.4 |  |  |
| Oc1ccc(Nc2nc(-c3ccc(Cl)cc3)cs2)cc1 [SKI II] | 31334.0 | 21341.0 |  |  |
| CNC(=O)c1cc(Oc2ccc(NC(=O)c3cccc(C(F)(F)F)c3)cc2)ccn1 [SKLB610] | 126.4 | 8430.0 |  |  |
| N#C/C(=C(/N)Sc1ccc(N)cc1)c1ccccc1C(F)(F)F [SL-327] | 10911.9 | 24198.7 |  |  |
| CC(C)NC(=O)COc1cccc(-c2nc(Nc3ccc4[nH]ncc4c3)c3ccccc3n2)c1 [SLx-2119] | 20785.5 | 59494.3 |  |  |
| O=C1NC(=O)/C(=C/c2cccc(C(F)(F)F)c2)S1 [SMI-4a] | 0.0 | 12244.4 |  |  |
| O=C(Nc1cccc(Cl)c1)Nc1ncc(CCNc2ncnc3ccsc23)s1 [SNS-314 Mesylate] | 5716.5 | 33317.4 |  |  |
| O=C(Nc1cc(C(F)(F)F)ccc1N1CCCCC1)c1ccncc1 [SRPIN340] | 38969.9 | 6071.8 |  |  |
| COc1c(C)c(C(=O)c2ccc(N)c(C(=O)[O-])c2)n2ccccc12.[Na+] [SSR128129E] | 4736.0 | 27624.5 |  |  |
| O=S(=O)(N=Cc1c(O)ccc2ccccc12)c1cccs1 [STF 083010] | 54363.2 | 46405.9 |  |  |
| Cc1cc(C)c(/C=C2\C(=O)Nc3ccccc32)[nH]1 [SU5416] | 39551.1 | 20455.1 |  |  |
| O=C(/C=C/c1ccccc1)NC(NC(=S)Nc1ccc(Cl)cc1)C(Cl)(Cl)Cl (stereo not drawn) [Sal 003] | 58234.6 | 61292.8 |  |  |
| OC[C@H]1O[C@@H](OCCc2ccc(O)cc2)[C@H](O)[C@@H](O)[C@@H]1O [Salidroside] | 19295.0 | 56220.3 |  |  |

| SMILES | dsRNA signal, AU High [1] [AU] | dsRNA signal, AU Low [2] [AU] | dsRNA signal, AU High | dsRNA signal, AU Low |
| --- | --- | --- | --- | --- |
| C[n+]1cc2c3c(ccc2c2ccc4cc5c(cc4c21)OCO5)OCO3 [Sanguinarine chloride] | 0.0 | 15548.2 |  |  |
| C[n+]1cc2c3c(ccc2c2ccc4cc5c(cc4c21)OCO5)OCO3 [Sanguinarine] | 0.0 | 895.9 |  |  |
| O=C(O)[C@H]1O[C@@H](Oc2cc3oc(-c4ccc(O)cc4)cc(=O)c3c(O)c2O)[C@H](O)[C@@H](O)[C@@H]1O [Scutellarin] | 1769.9 | 52840.4 |  |  |
| N#Cc1ccc2ncnc(NCCc3ccccc3)c2c1 [Senexin A] | 30520.6 | 31796.6 |  |  |
| O=C(O)c1cc(O)c2c(c1)[C@@H]([C@H]1c3cc(C(=O)O)cc(O)c3C(=O)c3c(O[C@@H]4O[C@H](CO)[C@@H](O)[C@H](O)[C@H]4O)cccc31)c1cccc(O[C@@H]3O[C@H](CO)[C@@H](O)[C@H](O)[C@H]3O)c1C2=O [Sennoside B] | 3953.3 | 3310.7 |  |  |
| CC(C)=CC[C@@H](O)C1=CC(=O)c2c(O)ccc(O)c2C1=O [Shikonin] | 54262.1 | 4009.3 |  |  |
| CN1CCN(c2nc(C3=C(c4c[nH]c5ccccc45)C(=O)NC3=O)c3ccccc3n2)CC1 [Sotrastaurin (AEB071)] | 6965.2 | 40818.2 |  |  |
| COc1cc(N2CCC(N3CCN(C)CC3)CC2)ccc1Nc1ncc(Cl)c(Nc2ccccc2S(=O)(=O)C(C)C)n1 [TAE684 (NVP-TAE684)] | 41419.4 | 4182.3 |  |  |
| COc1cc(C(=O)NC2CCN(C)CC2)c(F)cc1Nc1ncc2c(n1)N(C1CCCC1)CC(F)(F)C(=O)N2C [TAK960] | 9929.6 | 56355.2 |  |  |
| N#Cc1c(Oc2ccc(F)c(NC(=O)Cc3cccc(C(F)(F)F)c3)c2)ccc2nc(NC(=O)C3CC3)sc12 [TAK-632] | 12667.4 | 8796.8 |  |  |
| CCc1nc(-c2cccc(C)c2)c(-c2ccnc(NC(=O)c3ccccc3)c2)s1 [TAK-715] | 42569.8 | 29513.1 |  |  |
| CCS(=O)(=O)c1cccc(-c2cc(C(=O)NC3CCN(C)CC3)c(C)c3[nH]c4ncc(C)cc4c23)c1 [TAK-901] | 42486.6 | 61332.6 |  |  |
| Brc1c(Br)c(Br)c2n[nH]nc2c1Br [TBB] | 3323.3 | 16520.0 |  |  |
| COc1ccc(C(=O)Nc2sc3c(c2C(N)=O)CCCC3)cc1OC [TCS 359] | 5896.0 | 63380.8 |  |  |
| N#Cc1c(NC(=O)c2cccc3ccccc23)sc2c1CCCC2 [TCS JNK 5a] | 1144.9 | 17159.4 |  |  |
| N#Cc1c(-c2ccccc2)cc(-c2cc(Br)ccc2O)[nH]c1=O [TCS PIM-1 1] | 1935.2 | 16463.0 |  |  |
| O=C1NC(=O)/C(=C/c2cccc(C(F)(F)F)c2)S1 [TCS-PIM-1-4a] | 1917.5 | 12250.9 |  |  |
| Cn1sc(=O)n(Cc2ccccc2)c1=O [TDZD-8] | 7580.3 | 26092.4 |  |  |
| CCN1/C(=C/C(C)=O)Sc2ccc(OC)cc21 [TG003] | 1126.7 | 61445.9 |  |  |

| SMILES | dsRNA signal, AU High [1] [AU] | dsRNA signal, AU Low [2] [AU] | dsRNA signal, AU High | dsRNA signal, AU Low |
| --- | --- | --- | --- | --- |
| Nc1nc(N)c2nc(-c3cccc(O)c3)c(-c3cccc(O)c3)nc2n1 [TG100-115] | 401.6 | 17405.4 |  |  |
| Cc1ccccc1CN1C(=O)C2=C(CCN(Cc3ccccc3)C2)N2CCN=C12 [TIC10] | 0.0 | 1481.6 |  |  |
| Cc1[nH]c(/C=C2\C(=O)Nc3ccccc32)c(C)c1CCC(=O)O [TSU-68 (SU6668,Orantinib)] | 4841.4 | 21696.8 |  |  |
| Nc1cccc(-c2cc3c(Oc4cccc(O)c4)ncnc3[nH]2)c1 [TWS119] | 48959.2 | 29417.1 |  |  |
| COc1cc2c(N3CCN(C(=O)Nc4ccc(OC(C)C)cc4)CC3)ncnc2cc1OCCCN1CCCCC1.Cl [Tandutinib (MLN518) HCl] | 42444.4 | 13615.8 |  |  |
| O=C(NCc1ccccc1)c1csc(Nc2ccncn2)n1 [Thiazovivin] | 2364.1 | 26827.3 |  |  |
| O=c1sn(-c2cccc3ccccc23)c(=O)n1Cc1ccccc1 [Tideglusib] | 352.7 | 1603.7 |  |  |
| COc1ccc2cc(-c3nc(-c4ccc([S+](C)[O-])cc4)[nH]c3-c3ccncc3)ccc2c1 (stereo not drawn) [Tie2 kinase inhibitor] | 4787.9 | 16594.7 |  |  |
| COc1cc2nccc(Oc3ccc(NC(=O)Nc4cc(C)on4)c(Cl)c3)c2cc1OC [Tivozanib (AV-951)] | 40142.9 | 36133.0 |  |  |
| C[C@@H]1CCN(C(=O)CC#N)C[C@@H]1N(C)c1ncnc2[nH]ccc12.O=C(O)CC(O)(CC(=O)O)C(=O)O [Tofacitinib (CP-690550) Citrate] | 57107.2 | 61115.5 |  |  |
| C[C@@H]1CCN(C(=O)CC#N)C[C@@H]1N(C)c1ncnc2[nH]ccc12 [Tofacitinib (CP-690550,Tasocitinib)] | 6571.2 | 4801.5 |  |  |
| CCC(=O)N1CCN(c2ccc(-n3c(=O)ccc4cnc5ccc(-c6cnc7ccccc7c6)cc5c43)cc2C(F)(F)F)CC1 [Torin 1] | 1083.7 | 14896.3 |  |  |
| CC(=O)Nc1cccc(-n2c(=O)n(C3CC3)c(=O)c3c(Nc4ccc(I)cc4F)n(C)c(=O)c(C)c32)c1.C[S+](C)[O-] [Trametinib DMSO solvate] |  |  | 10918.5 | 24279.8 |
| NC(=S)N/N=C/c1ncccc1N [Triapine] | 0.0 | 17637.1 |  |  |
| CC(C)(C)c1cc(C=C(C#N)C#N)cc(C(C)(C)C)c1O [Tyrphostin 9] | 58.0 | 17328.1 |  |  |
| CC(C)(C)c1cc(/C=C(\C#N)C(N)=S)cc(C(C)(C)C)c1O [Tyrphostin AG 879] | 54.0 | 6760.3 |  |  |
| COc1cc2ncc(-c3ccccc3)nc2cc1OC [Tyrphostin AG 1296] | 2647.7 | 18881.3 |  |  |
| CCCCNc1ncc2c(-c3ccc(CN4CCN(C)CC4)cc3)cn([C@H]3CC[C@H](O)CC3)c2n1 [UNC2025] | 55553.7 | 67297.4 |  |  |
| CCCCNc1ncc(C(=O)NCc2ccc(-n3ccnc3)cc2)c(NC2CCC(O)CC2)n1 (stereo not drawn) [UNC2881] | 446.4 | 42094.2 |  |  |
